We go through 11 molecules from patent US11020395B2, “Cycloalkyl substituted triazole compounds as agonists of the APJ receptor” (AMGEN INC., priority 2016, dated 2021).

human APJ receptor, sequence (P35414 whole entry): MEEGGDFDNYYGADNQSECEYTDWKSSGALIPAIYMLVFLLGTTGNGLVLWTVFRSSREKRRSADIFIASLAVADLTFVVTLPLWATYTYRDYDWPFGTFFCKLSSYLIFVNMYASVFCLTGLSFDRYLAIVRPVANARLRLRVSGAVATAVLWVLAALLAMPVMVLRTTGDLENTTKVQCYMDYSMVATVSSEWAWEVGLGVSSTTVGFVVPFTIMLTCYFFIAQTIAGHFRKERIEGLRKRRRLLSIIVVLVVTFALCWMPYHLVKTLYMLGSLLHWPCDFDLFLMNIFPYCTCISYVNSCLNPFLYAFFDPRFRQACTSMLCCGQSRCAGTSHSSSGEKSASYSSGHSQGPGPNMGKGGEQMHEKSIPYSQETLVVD

The target of this assay is human APJ receptor (Homo sapiens (Human), UniProt P35414). Description: [35S]GTPγS binding assay on membranes from CHO cells stably expressing human APJ receptor. The format is biochemical. The conditions noted are these: [35S]GTPγS SPA, read-out: Activity hAPJ SPA EC50 IP. The method, then:
[^35S]GTPγS Binding The human APJ receptor was cloned by polymerase chain reaction and the gene encoding the receptor was subcloned in pFLAG-CMV™-3 expression vector (Sigma, Saint Louis, Mo. USA) in-house at Amgen. A GTPγS binding assay was performed on membranes prepared from CHO cells stably expressing human APJ receptor. The optimum experimental conditions for the concentrations of GDP, MgCl2, and NaCl in the assay buffer were initially determined. […] Incubation was at RT for 90 min and the microplate was read using a ViewLux™ ultra HTS Microplate Imager (PerkinElmer, Inc.). All the results presented are means of several independent experiments and analyzed by non-linear regression methods using the commercially available program Prism (GraphPad, San Diego, Calif.) providing the EC50 values detailed in Table 25.
(In general: GTPγS resists hydrolysis and so accumulates on activated G proteins.)
Turning to `COc1cccc(OC)c1-n1c(NS(=O)(=O)[C@@H](C)[C@@H](OC(C)C)c2ncc(C)cn2)nnc1[C@@H]1CCC(F)(F)C1` (mixture of isomers) [Example 232.0, (1S,2S)-N-(5-((1R)-3,3-difluorocyclopentyl)-4-(2,6-dimethoxyphenyl)-4H-1,2,4-triazol-3-yl)-1-(5-methyl-2-pyrimidinyl)-1-(2-propanyloxy)-2-propanesulfonamide and (1S,2S)-N-(5-((1S)-3,3-difluorocyclopentyl)-4-(2,6-dimethoxyphenyl)-4H-1,2,4-triazol-3-yl)-1-(5-methyl-2-pyrimidinyl)-1-(2-propanyloxy)-2-propanesulfonamide], the EC50 was determined as 42 nM.

Turning to `COc1ncnc(OC)c1-n1c(NS(=O)(=O)[C@@H](C)[C@H](OC)c2ncc(Cl)cn2)nnc1[C@H]1CC[C@H]1C(F)F` (racemic) [Example 146.0], the EC50 amounted to 26 nM.

For the molecule `COc1cccc(OC)c1-n1c(NS(=O)(=O)[C@@H](C)[C@@H](OC(C)C)c2ncc(C)cn2)nnc1[C@H]1C[C@@H](OC)C1` (racemic) [Example 227.0, (1S,2S)-N-(4-(2,6-dimethoxyphenyl)-5-(trans-3-methoxycyclobutyl)-4H-1,2,4-triazol-3-yl)-1-(5-methyl-2-pyrimidinyl)-1-(2-propanyloxy)-2-propanesulfonamide or (1S,2S)-N-(4-(2,6-dimethoxyphenyl)-5-(cis-3-methoxycyclobutyl)-4H-1,2,4-triazol-3-yl)-1-(5-methyl-2-pyrimidinyl)-1-(2-propanyloxy)-2-propanesulfonamide], the EC50 came out at 2.7 nM.

Take `COc1ncnc(OC)c1-n1c(NS(=O)(=O)[C@@H](C)[C@H](OC)c2ccc(Cl)cn2)nnc1C1CCC1` (single isomer, unassigned) [Example 91.0, (1R,2S)-1-(5-chloropyridin-2-yl)-N-(5-cyclobutyl-4-(4,6-dimethoxypyrimidin-5-yl)-4H-1,2,4-triazol-3-yl)-1-methoxypropane-2-sulfonamide or (1S,2R)-1-(5-chloropyridin-2-yl)-N-(5-cyclobutyl-4-(4,6-dimethoxypyrimidin-5-yl)-4H-1,2,4-triazol-3-yl)-1-methoxypropane-2-sulfonamide]: the EC50 came to 2.9 nM.

Take `COc1ncnc(OC)c1-n1c(NS(=O)(=O)[C@@H](C)[C@H](OC)c2ncc(Cl)cn2)nnc1[C@H]1CC1(F)F` (single isomer, unassigned) [Example 100.0, (1R,2S)-1-(5-chloropyrimidin-2-yl)-N-(5-((R)-2,2-difluorocyclopropyl)-4-(4,6-dimethoxypyrimidin-5-yl)-4H-1,2,4-triazol-3-yl)-1-methoxypropane-2-sulfonamide or (1R,2S)-1-(5-chloropyrimidin-2-yl)-N-(5-((S)-2,2-difluorocyclopropyl)-4-(4,6-dimethoxypyrimidin-5-yl)-4H-1,2,4-triazol-3-yl)-1-methoxypropane-2-sulfonamide]: the EC50 came out at 140 nM.

Turning to `COc1ncnc(OC)c1-n1c(NS(=O)(=O)[C@@H](C)[C@H](OC)c2ncc(Cl)cn2)nnc1[C@H]1CC1(F)F` (single isomer, unassigned) [Example 101.0, (1R,2S)-1-(5-chloropyrimidin-2-yl)-N-(5-((R)-2,2-difluorocyclopropyl)-4-(4,6-dimethoxypyrimidin-5-yl)-4H-1,2,4-triazol-3-yl)-1-methoxypropane-2-sulfonamide or (1R,2S)-1-(5-chloropyrimidin-2-yl)-N-(5-((S)-2,2-difluorocyclopropyl)-4-(4,6-dimethoxypyrimidin-5-yl)-4H-1,2,4-triazol-3-yl)-1-methoxypropane-2-sulfonamide], the EC50 was 60 nM.

Consider `COc1cccc(OC)c1-n1c(NS(=O)(=O)[C@@H](C)[C@H](OC)c2ncc(Cl)cn2)nnc1[C@H]1C[C@@H](C#N)C1` (single isomer, unassigned) [Example 121.0, (1R,2S)-1-(5-chloro-2-pyrimidinyl)-N-(5-(cis-3-cyanocyclobutyl)-4-(2,6-dimethoxyphenyl)-4H-1,2,4-triazol-3-yl)-1-methoxy-2-propanesulfonamide or (1R,2S)-1-(5-chloro-2-pyrimidinyl)-N-(5-(trans-3-cyanocyclobutyl)-4-(2,6-dimethoxyphenyl)-4H-1,2,4-triazol-3-yl)-1-methoxy-2-propanesulfonamide], for which the EC50 worked out at 5.4 nM.

As to `COc1cccc(OC)c1-n1c(NS(=O)(=O)[C@@H](C)[C@H](OC)c2ncc(Cl)cn2)nnc1[C@H]1C[C@@H](C#N)C1` (single isomer, unassigned) [Example 122.0, (1R,2S)-1-(5-chloro-2-pyrimidinyl)-N-(5-(cis-3-cyanocyclobutyl)-4-(2,6-dimethoxyphenyl)-4H-1,2,4-triazol-3-yl)-1-methoxy-2-propanesulfonamide or (1R,2S)-1-(5-chloro-2-pyrimidinyl)-N-(5-(trans-3-cyanocyclobutyl)-4-(2,6-dimethoxyphenyl)-4H-1,2,4-triazol-3-yl)-1-methoxy-2-propanesulfonamide], the EC50 is 28 nM.

In the case of `COc1cccc(OC)c1-n1c(NS(=O)(=O)[C@@H](C)[C@H](OC)c2ncc(Cl)cn2)nnc1[C@H]1C[C@@H](CO)C1` (single isomer, unassigned) [Example 123.0, (1R,2S)-1-(5-chloro-2-pyrimidinyl)-N-(4-(2,6-dimethoxyphenyl)-5-(cis-3-(hydroxymethyl)cyclobutyl)-4H-1,2,4-triazol-3-yl)-1-methoxy-2-propanesulfonamide or (1R,2S)-1-(5-chloro-2-pyrimidinyl)-N-(4-(2,6-dimethoxyphenyl)-5-(trans-3-(hydroxymethyl)cyclobutyl)-4H-1,2,4-triazol-3-yl)-1-methoxy-2-propanesulfonamide], the 50% effective concentration (EC50) came to 5.1 nM.

As for `COc1cccc(OC)c1-n1c(NS(=O)(=O)[C@@H](C)[C@H](OC)c2ncc(Cl)cn2)nnc1[C@H]1C[C@@H](CO)C1` (single isomer, unassigned) [Example 124.0, (1R,2S)-1-(5-chloro-2-pyrimidinyl)-N-(4-(2,6-dimethoxyphenyl)-5-(cis-3-(hydroxymethyl)cyclobutyl)-4H-1,2,4-triazol-3-yl)-1-methoxy-2-propanesulfonamide or (1R,2S)-1-(5-chloro-2-pyrimidinyl)-N-(4-(2,6-dimethoxyphenyl)-5-(trans-3-(hydroxymethyl)cyclobutyl)-4H-1,2,4-triazol-3-yl)-1-methoxy-2-propanesulfonamide], the EC50 was determined as 49 nM.

Consider `COCC(COC)n1c(NS(=O)(=O)[C@@H](C)[C@H](OC)c2ncc(Cl)cn2)nnc1[C@H]1C[C@H](CO)C1` (single isomer, unassigned) [Example 130.0, (1R,2S)-1-(5-chloropyrimidin-2-yl)-N-(4-(1,3-dimethoxypropan-2-yl)-5-((1r,3S)-3-(hydroxymethyl)cyclobutyl)-4H-1,2,4-triazol-3-yl)-1-methoxypropane-2-sulfonamide or (1R,2S)-1-(5-chloropyrimidin-2-yl)-N-(4-(1,3-dimethoxypropan-2-yl)-5-((1s,3R)-3-(hydroxymethyl)cyclobutyl)-4H-1,2,4-triazol-3-yl)-1-methoxypropane-2-sulfonamide], for which the EC50 was determined as 1500 nM.

Usually EC50 stands for the concentration needed to bring the measured effect to its halfway point.
